# Measured values from US20250144067A1, “PERSONALIZED STARVATION THERAPY FOR CANCER” (Faeth Therapeutics, Inc., priority 2021, published 2025).
# Where a name gives a salt, the structure may show the parent alone.
# Assays:
# [1] = tested on: NCI-H292 lung cancer cells; test: FDA drug screening, complete media vs cholesterol-free media with simvastatin (TABLE 2); type: cell-based, human; settings: for Cholesterol-free media + simvastatin (0.04 μM) / Complete Media: NCI-H292 cells
# [2] = tested on: NCI-H292 lung cancer cells; test: FDA drug screening, complete media vs cholesterol-free media without statin (TABLE 1); type: cell-based, human
# [3] = FDA drug library screen, cholesterol-free media with simvastatin 0.04 μM
# [4] = FDA drug library screen, complete media
# [5] = complete media minus cholesterol-free media + simvastatin, >0 enhanced anti-cancer activity, about 0 neutral, <0 antagonist
# [6] = Complete minus Cholesterol-free, >0 enhanced anti-cancer activity, about 0 neutral, <0 antagonist
# [7] = NCI-H292 cells, cholesterol-free media without statin, FDA drug library screen
# [8] = NCI-H292 cells, complete media, FDA drug library screen
# [9] = FDA library drug in cholesterol-free media with simvastatin 0.04 μM
# [10] = FDA library drug in complete media
# [11] = complete media vs cholesterol-free media + simvastatin (0.04 μM), >0 enhanced anti-cancer activity, about 0 neutral, <0 antagonist
# [12] = Complete minus Cholesterol-free, greater than 0 enhanced anti-cancer activity, about 0 neutral, below 0 antagonist
# [13] = NCI-H292 cells, FDA drug library screen, cholesterol-free media without statin
# [14] = NCI-H292 cells, FDA drug library screen, complete media
# [15] = drug in cholesterol-free media with simvastatin 0.04 μM
# [16] = Complete minus Cholesterol-free, greater than 0 enhanced anti-cancer activity, about 0 neutral, below 0 antagonists
# [17] = NCI-H292 cells in cholesterol-free media without statin
# [18] = NCI-H292 cells in complete media
# [19] = NCI-H292 cells, cholesterol-free media without statin
# [20] = complete vs cholesterol-free media, >0 enhanced anti-cancer activity, about 0 neutral, <0 antagonist
# [21] = complete media vs cholesterol-free media + simvastatin (0.04 μM), […]
# [22] = Complete minus Cholesterol-free, […]
molecule,measurement,setting,value
CC/C(=C(\c1ccccc1)c1ccc(OCCN(C)C)cc1)c1ccccc1 [Tamoxifen],Cholesterol-free media + simvastatin (0.04 μM),[1]; [3],0.7526
same,Complete Media,[1]; [4],1.084
same,Difference,[1]; [5],0.33
same,Difference,[2]; [6],0.05
same,Cholesterol-free,[2]; [7],0.6611
same,Complete,[2]; [8],0.7069
"COc1ccc2cc1Oc1ccc(cc1)C[C@H]1c3c(cc4c(c3Oc3cc5c(cc3OC)CCN(C)[C@@H]5C2)OCO4)CCN1C [cepharanthine, reference compound]",Cholesterol-free media + simvastatin (0.04 μM),[1]; [3],0.1249
same,Complete Media,[1]; [4],1.4
same,Difference,[1]; [5],1.27
same,Difference,[2]; [6],0.04
same,Cholesterol-free,[2]; [7],1.12
same,Complete,[2]; [8],1.159
CCC(=O)OCC(=O)[C@@]1(OC(=O)CC)[C@@H](C)C[C@H]2[C@@H]3CCC4=CC(=O)C=C[C@]4(C)[C@@]3(Cl)[C@@H](O)C[C@@]21C [Beclometasone dipropionate],Cholesterol-free media + simvastatin (0.04 μM),[1]; [9],1.133
same,Complete Media,[1]; [10],0.8544
same,Difference,[1]; [11],−0.28
same,Difference,[2]; [12],−0.19
same,Cholesterol-free,[2]; [13],1.005
same,Complete,[2]; [14],0.8203
FC(F)(F)c1ccc(CNc2ccc(Cc3c[nH]c4ncc(Cl)cc34)cn2)cn1 [Pexidartinib],Cholesterol-free media + simvastatin (0.04 μM),[1]; [15],1.767
same,Complete Media,[1]; drug in complete media,1.579
same,Difference,[1]; [11],−0.19
same,Difference,[2]; [16],−0.77
same,Cholesterol-free,[2]; [17],1.609
same,Complete,[2]; [18],0.8353
C[C@]12CCC(=O)C=C1C=C[C@@H]1[C@@H]2CC[C@@]2(C)[C@H]1CC[C@@]21CCC(=O)O1 [Canrenone],Cholesterol-free media + simvastatin (0.04 μM),[1]; [3],1.098
same,Complete Media,[1]; [4],1.452
same,Difference,[1]; [5],0.35
same,Difference,[2]; [6],−0.20
same,Cholesterol-free,[2]; [19],1.047
same,Complete,"[2]; NCI-H292 cells, complete media",0.8458
NC(=O)N1c2ccccc2CC(=O)c2ccccc21 [Oxcarbazepine],Cholesterol-free media + simvastatin (0.04 μM),[1]; [9],1.305
same,Complete Media,[1]; [10],0.9097
same,Difference,[1]; [11],−0.40
same,Cholesterol-free,[2]; [7],0.8341
same,Complete,[2]; [8],1.538
same,Difference,[2]; [20],0.70
c1ccc(CN(CC2=NCCN2)c2ccccc2)cc1 [Antazoline (hydrochloride)],Cholesterol-free media + simvastatin (0.04 μM),[1]; [15],1.401
same,Complete Media,[1]; drug in complete media,1.21
same,Difference,[1]; [11],−0.19
same,Difference,[2]; [6],−0.24
same,Cholesterol-free,[2]; [19],1.006
same,Complete,"[2]; NCI-H292 cells, complete media",0.7704
NCCC[C@H](NC(=O)[C@@H]1CCCN1C(=O)[C@@H]1CSSC[C@H](N)C(=O)N[C@@H](Cc2ccc(O)cc2)C(=O)N[C@@H](Cc2ccccc2)C(=O)N[C@@H](CCC(N)=O)C(=O)N[C@@H](CC(N)=O)C(=O)N1)C(=O)NCC(N)=O [Ornipressin],Cholesterol-free media + simvastatin (0.04 μM),[1]; [9],1.553
same,Complete Media,[1]; [10],0.7895
same,Difference,[1]; [21],−0.76
same,Difference,[2]; [22],0.03
same,Cholesterol-free,[2]; [7],1.024
same,Complete,[2]; [8],1.051
N#Cc1c(N2C[C@@H]3NCCO[C@H]3C2)c(F)cc2c(=O)c(C(=O)O)cn(C3CC3)c12 [Finafloxacin],Cholesterol-free media + simvastatin (0.04 μM),[1]; [15],1.227
same,Complete Media,[1]; drug in complete media,0.9973
same,Difference,[1]; [21],−0.23
same,Difference,[2]; [22],−0.22
same,Cholesterol-free,[2]; [19],1.006
same,Complete,"[2]; NCI-H292 cells, complete media",0.7899
C=Cc1c(C)c2cc3nc(c(CC(=O)N[C@@H](CC(=O)O)C(=O)O)c4[nH]c(cc5nc(cc1[nH]2)C(C)=C5CC)c(C)c4C(=O)O)[C@@H](CCC(=O)O)[C@@H]3C [Talaporfin (sodium)],Cholesterol-free media + simvastatin (0.04 μM),[1]; [3],1.087
same,Complete Media,[1]; [4],0.9459
same,Difference,[1]; [11],−0.14
same,Difference,[2]; [6],−0.29
same,Cholesterol-free,[2]; [19],1.22
same,Complete,"[2]; NCI-H292 cells, complete media",0.9319
Saquinavir (Mesylate),Cholesterol-free media + simvastatin (0.04 μM),[1]; [3],2.052
same,Complete Media,[1]; [4],1.925
same,Difference,[1]; [11],−0.13
same,Cholesterol-free,[2]; [7],0.7536
same,Complete,[2]; [8],1.206
same,Difference,[2]; [20],0.45
CCCCC1=NC2(CCCC2)C(=O)N1Cc1ccc(-c2ccccc2-c2nnn[nH]2)cc1 [Irbesartan],Cholesterol-free media + simvastatin (0.04 μM),"[1]; cholesterol-free media with simvastatin 0.04 μM, cell growth value in FDA drug screen",0.9096
same,Complete Media,"[1]; complete media, cell growth value in FDA drug screen",0.9697
same,Difference,[1]; [5],0.06
same,Difference,[2]; [12],−0.08
same,Cholesterol-free,[2]; [13],0.8711
same,Complete,[2]; [14],0.7887
CCOc1ccccc1OCCN[C@H](C)Cc1ccc(OC)c(S(N)(=O)=O)c1 [Tamsulosin],Cholesterol-free media + simvastatin (0.04 μM),[1]; [15],1.361
same,Complete Media,[1]; drug in complete media,1.178
same,Difference,[1]; [11],−0.18
same,Difference,[2]; [12],−0.14
same,Cholesterol-free,[2]; [13],1.006
same,Complete,[2]; [14],0.8695
C[C@]12CC[C@H](O)CC1=CC[C@@H]1[C@@H]2CC[C@]2(C)C(c3cccnc3)=CC[C@@H]12 [Abiraterone],Cholesterol-free media + simvastatin (0.04 μM),[1]; [9],1.907
same,Complete Media,[1]; [10],1.473
same,Difference,[1]; [11],−0.43
same,Cholesterol-free,[2]; [7],1.119
same,Complete,[2]; [8],1.371
same,Difference,[2]; [20],0.25
Cc1ccnc(NS(=O)(=O)c2ccc(N)cc2)n1 [Sulfamerazine],Cholesterol-free media + simvastatin (0.04 μM),[1]; [9],2.163
same,Complete Media,[1]; [10],1.355
same,Difference,[1]; [11],−0.81
same,Difference,[2]; [16],−0.49
same,Cholesterol-free,[2]; [17],1.498
same,Complete,[2]; [18],1.009
O=C(CCCN1CCC(O)(c2ccc(Br)cc2)CC1)c1ccc(F)cc1 [Bromperidol],Cholesterol-free media + simvastatin (0.04 μM),[1]; [3],0.4758
same,Complete Media,[1]; [4],1.318
same,Difference,[1]; [5],0.84
same,Difference,[2]; [12],−0.13
same,Cholesterol-free,[2]; [13],1.177
same,Complete,[2]; [14],1.05
Cinepazide (Maleate),Cholesterol-free media + simvastatin (0.04 μM),[1]; [3],1.132
same,Complete Media,[1]; [4],1.001
same,Difference,[1]; [21],−0.13
same,Cholesterol-free,[2]; [7],0.7192
same,Complete,[2]; [8],1.265
same,Difference,"[2]; complete vs cholesterol-free media, […]",0.55
O=c1[nH]cnc2c1ncn2[C@@H]1O[C@H](CO)[C@@H](O)[C@H]1O [Inosine],Cholesterol-free media + simvastatin (0.04 μM),[1]; [3],0.924
same,Complete Media,[1]; [4],1.085
same,Difference,[1]; [5],0.16
same,Difference,[2]; [6],0.02
same,Cholesterol-free,[2]; [7],0.9203
same,Complete,[2]; [8],0.941
CCCCC(=O)O[C@H]1CC[C@H]2[C@@H]3CCc4cc(O)ccc4[C@H]3CC[C@]12C [Estradiol valerianate],Cholesterol-free media + simvastatin (0.04 μM),"[1]; cholesterol-free media with simvastatin 0.04 μM, FDA drug library screen (TABLE 2)",0.9732
same,Complete Media,"[1]; complete media, FDA drug library screen (TABLE 2)",0.9423
same,Difference,"[1]; complete media minus cholesterol-free media + simvastatin (0.04 μM), >0 enhanced anti-cancer activity, about 0 neutral, <0 antagonist",−0.03
same,Cholesterol-free,[2]; [19],1.221
same,Complete,"[2]; NCI-H292 cells, complete media",0.8253
same,Difference,"[2]; complete vs cholesterol-free media, greater than 0 enhanced anti-cancer activity, about 0 neutral, below 0 antagonists",−0.40
c1ccc2c(c1)CCCC2C1=NCCN1 (stereo not drawn) [Tetrahydrozoline (hydrochloride)],Cholesterol-free media + simvastatin (0.04 μM),[1]; [3],1.06
same,Complete Media,[1]; [4],0.9332
same,Difference,[1]; [11],−0.13
same,Difference,[2]; [6],−0.03
same,Cholesterol-free,[2]; [7],0.9833
same,Complete,[2]; [8],0.9541
CCOC(=O)C1=C(COCCN)NC(C)=C(C(=O)OC)C1c1ccccc1Cl (stereo not drawn) [Amlodipine],Cholesterol-free media + simvastatin (0.04 μM),[1]; [3],1.424
same,Complete Media,[1]; [4],1.705
same,Difference,[1]; [5],0.28
same,Cholesterol-free,[2]; [7],0.797
same,Complete,[2]; [8],1.434
same,Difference,[2]; [20],0.64
OCCN1C[C@H](O)[C@@H](O)[C@H](O)[C@H]1CO [Miglitol],Cholesterol-free media + simvastatin (0.04 μM),[1]; [15],1.367
same,Complete Media,[1]; drug in complete media,1.199
same,Difference,[1]; [11],−0.17
same,Difference,[2]; [12],−0.11
same,Cholesterol-free,[2]; [13],0.916
same,Complete,[2]; [14],0.8049
